# Article PMC7435778, “Bidirectional Modulation of the Voltage-Gated Sodium (Nav1.6) Channel by Rationally Designed Peptidomimetics” (Molecules, 2020)
# Where two headings read alike, the source gives them in different places. Starred links: 1 amine or outer side, 2 acyl side, 3 side chain; linkers in the order of their positions; H or OH if unused. Non-standard residues stand in square brackets, D forms with d. Residues, ends and D or L forms follow the SMILES beside them. *: point of attachment. Tyr(OtBu) = CC(C)(C)Oc1ccc(C[C@H](N[*:1])C(=O)[*:2])cc1; Glu(OtBu) = CC(C)(C)OC(=O)CC[C@H](N[*:1])C(=O)[*:2]; Fmoc = O=C(OCC1c2ccccc2-c2ccccc21)*; Decanoyl = CCCCCCCCCC(=O)*; Cbz = O=C(OCc1ccccc1)*; Boc = CC(C)(C)OC(=O)*; Bz = O=C(c1ccccc1)*; OtBu = CC(C)(C)O*; tBu = CC(C)(C)*
# T1: FGF14 (Homo sapiens, UniProt Q92915)
# T1 sequence (Q92915 64-252 isoform Q92915-2): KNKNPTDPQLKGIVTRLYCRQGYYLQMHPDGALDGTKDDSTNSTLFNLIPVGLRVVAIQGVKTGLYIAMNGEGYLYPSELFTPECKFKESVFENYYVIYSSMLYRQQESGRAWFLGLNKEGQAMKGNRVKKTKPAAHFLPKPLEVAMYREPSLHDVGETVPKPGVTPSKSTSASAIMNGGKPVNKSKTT
# T2: fibroblast growth factor 14 (FGF14), aa 64–252 (UniProt Q92915)
# T2 sequence: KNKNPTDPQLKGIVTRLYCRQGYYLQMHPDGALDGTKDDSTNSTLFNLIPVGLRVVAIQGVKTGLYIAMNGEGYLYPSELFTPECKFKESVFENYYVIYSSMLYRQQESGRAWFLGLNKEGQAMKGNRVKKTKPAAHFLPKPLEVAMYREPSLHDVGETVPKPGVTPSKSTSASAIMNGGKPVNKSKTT
# Assays:
# FGF14 = molecular target: T1, FGF14; assay: Surface plasmon resonance binding to FGF14; details: for koff: read-out: koff FGF14; for kon: read-out: kon FGF14
# Protocol: The determined kon and koff rate constants provide important information about interaction mechanisms and compound properties, enabling investigation of SARs and the rational modification of compounds. Therefore, we used SPR to assess and compare the binding of peptidomimetics to FGF14 and Nav1.6 C-terminal tail protein. Proteins were purified as previously described [31, 36], immobilized to CM5 sensor chips, and increasing concentrations of compounds (0.195–100 µM) were flown over the chips at 60 µL/min.
# The two plasmids (pET28a-FGF14; pET30a-Nav1.6) for protein expression and purification of FGF14 (accession number NP_787125; aa 64–252) and Nav1.6 C-tail (accession number #NP_001171455; aa 1763–1912) have been previously described [36, 45] and were transformed into E. coli BL21 (DE3) pLys (Invitrogen). Cells were grown until OD600 = 0.7, and the recombinant proteins were expressed after induction with 0.1 mM isopropyl thio-β-D-galacto-pyranoside (IPTG) for 24 h at 16 °C. Cells were harvested and lysed by sonication at 4 °C in lysis/binding buffer containing the following components (mM): 10 sodium phosphate (prepared from 0.5 M of Na2HPO4 and NaH2PO4), 25 4-(2-hydroxyethyl)-1-piperazineethanesulfonic acid (HEPES), 150 NaCl, phenyl methyl sulphonyl fluoride (PMSF) 0.1, 3-((3-cholamidopropyl) dimethylammonio)-1-propanesulfonate (CHAPS) 0.1% pH 7.0 (for FGF14), and with glycerol 10% (for Nav1.6 C-tail) pH 7.5. The respective proteins were centrifuged at 40,000× g for 1 h at 4 °C. For purification of FGF14, the supernatant was applied to pre-equilibrated heparin and the proteins were then eluted with NaCl 0.2–2.0 M (sodium phosphate 10 mM, NaCl 0.2–2.0 M, pH 7.0) buffer. For purification of Nav1.6 C-tail, the supernatant was first applied to a cobalt column (Thermo Fisher Scientific) and eluted with imidazole (200 mM). The Nav1.6 C-tail was further purified using a HiTrap Q Sepharose Fast Flow column (GE Healthcare, Pittsburgh, PA, USA) using a buffer containing Tris-HCl 50 mM and eluted with NaCl (10–500 mM) at pH 7.5. Finally, all concentrated proteins were purified on an AKTA^TM fast protein liquid chromatography (FPLC) using a Superdex 200 HiLoad 16 × 60 column and equilibrated in Tris-HCl 50 mM + NaCl 150 mM, pH 7.5 (GE Healthcare Bio-Sciences, Chicago, IL, USA). Protein concentrations were determined using UV absorbance with a Thermo NANODROP.
# SPR experiments were performed on a Biacore T100 instrument (GE Healthcare, Chicago, IL, USA). Proteins were immobilized on CM5 sensor chips using 10 mM sodium acetate buffer (pH 5.5) with the Amine Coupling Kit (GE Healthcare), as per the manufacturer’s instructions, to a final RU value of 17,896 for FGF14 and 6,800 for Nav1.6 C-tail. No protein was coupled to the control flow channels of the chip (Lanes 1 and 3). The interaction of experimental compounds against FGF14 and Nav1.6 proteins were studied at 25 °C using a flow rate of 60 µL/min. Compounds were serially diluted (0.195–200 µM) in PBS supplemented with Tween-20 0.005% and 2% DMSO. Each sample was injected over the chip for 120 s followed by a dissociation period of 150 s, and finally, chip surface regeneration (600 mM NaCl, 5% DMSO) for 120 s. Each compound was tested over at least two independent experiments with concentrations of 0.195, 0.39, 0.78, 1.56, 3.12, 6.25, 12.5, 25, 50, 100, and 200 µM, including 12.5 and 25 µM, and blanks (buffer alone) in duplicate. A DMSO calibration was performed for each experiment (1.5–2.8% (v/v) DMSO) to correct for bulk refractive index shifts [48].
# Nav1.6 channel [1] = molecular target: T3, Nav1.6 channel (Homo sapiens, UniProt Q9UQD0); assay: Whole-cell patch-clamp electrophysiology in HEK-Nav1.6 cells; format: cell-based; details: 20 µM; for Tau of Fast Inactivation: at −10 mV, DMSO 1.17 ± 0.09; for Long Term Inactivation, depolarization cycle 4 (INa/INa,Cycle 1) / Long Term Inactivation, depolarization cycle 3 (INa/INa,Cycle 1) / Long Term Inactivation, depolarization cycle 2 (INa/INa,Cycle 1): fraction of channels available; for Long Term Inactivation, depolarization cycle 4 (INa/INa,Cycle 1): DMSO 0.85 ± 0.04; for Long Term Inactivation, depolarization cycle 3 (INa/INa,Cycle 1): DMSO 0.86 ± 0.03; for Long Term Inactivation, depolarization cycle 2 (INa/INa,Cycle 1): DMSO 0.89 ± 0.03; for V1/2 of Steady-state Inactivation: DMSO –58.58 ± 1.90
# T3 construct: expressed in transfected cells
# Protocol: As such, in an effort to further investigate their seemingly inverse activities, 12 and 19 were selected for functional evaluation as modulators of Nav1.6. To do so, HEK293 cells stably expressing Nav1.6 (HEK-Nav1.6) were incubated for 30 min with 0.1% DMSO (control), 20 µM 12, or 20 µM 19. After incubation, the modulatory effects of these peptidomimetics on Nav1.6-mediated currents were assessed using whole-cell patch-clamp electrophysiology (Figure 5 and Table 4).
# HEK293 cells were maintained in Dulbecco’s Modified Eagle Medium (DMEM) and F-12 (Invitrogen, Carlsbad, CA, USA), supplemented with 0.05% glucose, 0.5 mM pyruvate, 10% fetal bovine serum, 100 units/mL penicillin, and 100 µg/mL streptomycin (Invitrogen), and incubated at 37 °C with 5% CO2. The double stable HEK293 cell line expressing CD4-Nav1.6C-tail-NLuc and CLuc-FGF14 used for LCA experiments was described in a previous study and was maintained using selective antibiotics (0.5 mg/mL G418 and 5 µg/mL puromycin). HEK293 cells stably expressing the human Nav1.6 channel (hereafter referred to as HEK-Nav1.6 cells) were maintained similarly, except for the addition of 500 μg/mL G418 (Invitrogen) to maintain stable Nav1.6 expression. Cells were transfected at 80–90% confluence with equal amount (1 μg each) of plasmid pairs using Lipofectamine 3000 (Invitrogen, Waltham, MA, USA) according to the manufacturer’s instructions. HEK-Nav1.6 cells were washed and re-plated at very low density prior to electrophysiological recordings.
# HEK293 cells stably expressing Nav1.6 (HEK-Nav1.6) were grown in culture as described above. Prior to experimentation, HEK-Nav1.6 cells were dissociated using Gibco TrypLE (Thermo Fisher Scientific, Walthman, MA, USA) and plated at low density onto glass coverslips situated at the base of wells in CELLSTAR® 24-Well Multi-Well Plates (Greiner Bio-One, Monroe, NC, USA). Cells were then incubated on glass cover slips for 2–3 h. After incubation, glass cover slips were transferred to the recording chamber containing 3 mL of extracellular solution comprised of the following salts (mM): 140 NaCl, 3 KCl, 1 MgCl2, 1 CaCl2, 10 HEPES, 10 glucose, pH 7.3. After incubating for thirty minutes in the extracellular solution containing either DMSO or experimental compound, recordings were then performed at room temperature (20–22 °C) using a MultiClamp 700B amplifier (Molecular Devices, Sunnyvale, CA) and borosilicate glass pipettes (resistance of 3–6 MΩ) containing intracellular solution comprised of the following salts (mM): 130 CH3O3SCs, 1 ethylene glycol tetraacetic acid (EGTA), 10 NaCl, 10 HEPES, pH 7.3. Dial settings on the amplifier were used to estimate membrane capacitance and series resistance and compensated for electronically by 70–80%. Prior to digitization and storage, data were acquired at 20 kHz and filtered at 5 kHz. Clampex 9.2 software (Molecular Devices), interfaced to the electrophysiological equipment using a Digidata 1200 analog-digital interface (Molecular Devices), was used to control all experimental parameters. To assess the relationship of INa and voltage, HEK-Nav1.6 cells were evoked by depolarizations to test potentials ranging from –100 to +60 mV from a holding potential of −70 mV, followed by a voltage pre-step pulse of −120 mV. To assess steady-state inactivation of Nav channels, HEK-Nav1.6 cells were evoked using a paired-pulse protocol in which cells were stepped, from the holding potential, to varying test potentials ranging from −120 to +20 mV (pre-pulse) prior to a test pulse to −20 mV.
# [2] = system: HEK293 cells (Clone V cells); details: positive control with known toxicity; cited from earlier work
# Nav1.6 channel [3] = molecular target: T3, Nav1.6 channel; parameters: method as in PMID 30587448; details: previously reported, cited from earlier work
# MSNs of the NAc = system: MSNs of the NAc; parameters: method as in PMID 29359916; details: previously reported; cited from earlier work
# [4] = molecular target: T2, fibroblast growth factor 14 (FGF14), aa 64–252; assay: SPR; Biacore T100; FGF14 (17,896 RU) or Nav1.6 C-tail (6,800 RU) amine-coupled to CM5 chips; compounds 0.195–200 µM flowed at 60 µL/min, 25 °C, PBS with 0.005% Tween-20 and 2% DMSO; KD is the average of the 1:1 Langmuir kinetic fit and the steady-state fit
# [5] = molecular target: T2, fibroblast growth factor 14 (FGF14), aa 64–252; assay: as above; remark: listed apart in the source
# T3 sequence (Q9UQD0 whole entry): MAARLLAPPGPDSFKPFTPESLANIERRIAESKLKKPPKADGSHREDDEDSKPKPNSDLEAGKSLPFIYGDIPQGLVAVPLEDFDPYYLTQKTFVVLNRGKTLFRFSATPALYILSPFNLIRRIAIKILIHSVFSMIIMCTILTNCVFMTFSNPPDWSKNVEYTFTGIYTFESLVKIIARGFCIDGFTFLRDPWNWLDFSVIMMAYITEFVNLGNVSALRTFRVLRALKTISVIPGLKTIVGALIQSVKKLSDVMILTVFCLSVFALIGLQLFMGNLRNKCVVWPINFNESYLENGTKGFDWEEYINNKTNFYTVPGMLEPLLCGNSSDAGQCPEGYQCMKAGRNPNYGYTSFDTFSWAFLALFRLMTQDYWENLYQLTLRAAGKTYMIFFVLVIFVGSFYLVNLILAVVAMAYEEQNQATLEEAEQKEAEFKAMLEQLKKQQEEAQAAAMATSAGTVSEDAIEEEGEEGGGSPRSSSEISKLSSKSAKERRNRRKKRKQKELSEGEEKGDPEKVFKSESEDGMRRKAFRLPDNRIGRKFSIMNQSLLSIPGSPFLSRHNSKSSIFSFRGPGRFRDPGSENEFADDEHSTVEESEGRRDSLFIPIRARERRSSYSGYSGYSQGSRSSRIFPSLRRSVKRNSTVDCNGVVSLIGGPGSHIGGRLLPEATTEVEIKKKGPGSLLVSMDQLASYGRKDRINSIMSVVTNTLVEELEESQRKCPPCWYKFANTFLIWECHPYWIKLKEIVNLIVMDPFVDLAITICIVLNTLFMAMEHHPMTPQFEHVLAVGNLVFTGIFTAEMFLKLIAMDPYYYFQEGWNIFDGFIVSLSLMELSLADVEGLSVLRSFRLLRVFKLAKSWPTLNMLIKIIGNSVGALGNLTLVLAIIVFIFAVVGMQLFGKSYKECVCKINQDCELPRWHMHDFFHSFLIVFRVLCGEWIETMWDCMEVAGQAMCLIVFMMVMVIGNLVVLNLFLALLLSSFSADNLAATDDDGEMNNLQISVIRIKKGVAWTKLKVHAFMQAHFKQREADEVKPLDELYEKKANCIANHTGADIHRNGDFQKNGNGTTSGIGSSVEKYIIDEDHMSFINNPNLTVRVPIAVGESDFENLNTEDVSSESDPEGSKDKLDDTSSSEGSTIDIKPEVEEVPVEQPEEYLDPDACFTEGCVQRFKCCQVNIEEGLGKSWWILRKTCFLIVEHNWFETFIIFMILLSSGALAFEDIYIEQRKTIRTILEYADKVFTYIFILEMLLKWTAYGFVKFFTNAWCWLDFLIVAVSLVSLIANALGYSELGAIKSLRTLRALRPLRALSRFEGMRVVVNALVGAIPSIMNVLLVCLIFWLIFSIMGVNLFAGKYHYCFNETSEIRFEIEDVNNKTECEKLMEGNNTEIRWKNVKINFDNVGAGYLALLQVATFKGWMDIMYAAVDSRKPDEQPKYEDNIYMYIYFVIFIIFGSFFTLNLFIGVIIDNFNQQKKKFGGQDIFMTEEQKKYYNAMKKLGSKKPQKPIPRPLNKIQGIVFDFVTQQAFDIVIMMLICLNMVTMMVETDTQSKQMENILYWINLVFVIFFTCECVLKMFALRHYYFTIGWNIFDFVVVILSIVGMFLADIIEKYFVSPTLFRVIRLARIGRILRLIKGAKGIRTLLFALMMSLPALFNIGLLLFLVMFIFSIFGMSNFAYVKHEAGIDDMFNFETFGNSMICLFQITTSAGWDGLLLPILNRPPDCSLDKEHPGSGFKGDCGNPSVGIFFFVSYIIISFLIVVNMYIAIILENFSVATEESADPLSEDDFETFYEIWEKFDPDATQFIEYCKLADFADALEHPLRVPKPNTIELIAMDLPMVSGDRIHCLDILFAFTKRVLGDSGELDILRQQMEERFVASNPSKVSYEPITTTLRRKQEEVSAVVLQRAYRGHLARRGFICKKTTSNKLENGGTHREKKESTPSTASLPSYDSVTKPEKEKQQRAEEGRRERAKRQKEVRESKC
Molecule,koff (FGF14) [s⁻¹],kon (FGF14) [M⁻¹ s⁻¹],Kd [4] [µM],koff [4] [s⁻¹],kon [4] [M⁻¹ s⁻¹],other results
"CC(C)[C@H](NC(=O)[C@H](Cc1ccc(OC(C)(C)C)cc1)NC(=O)[C@H](Cc1ccc(OC(C)(C)C)cc1)NC(=O)OCC1c2ccccc2-c2ccccc21)C(N)=O [Compound 12, (9H-fluoren-9-yl)methyl ((S)-1-(((S)-1-(((S)-1-amino-3-methyl-1-oxobutan-2-yl)amino)-3-(4-(tert-butoxy)phenyl)-1-oxopropan-2-yl)amino)-3-(4-(tert-butoxy)phenyl)-1-oxopropan-2-yl)carbamate] (Fmoc-Tyr(tBu)-Tyr(tBu)-Val-NH2)",0.0186,6440,–,–,–,"Tau of Fast Inactivation (Nav1.6 channel [1]; mean ± SEM): 1.30 ± 0.11 (7) ms; Long Term Inactivation, depolarization cycle 4 (INa/INa,Cycle 1) (Nav1.6 channel [1]): 0.70 ± 0.04 (7); Long Term Inactivation, depolarization cycle 3 (INa/INa,Cycle 1) (Nav1.6 channel [1]): 0.76 ± 0.03; Long Term Inactivation, depolarization cycle 2 (INa/INa,Cycle 1) (Nav1.6 channel [1]): 0.88 ± 0.03; V1/2 of Activation (Nav1.6 channel [1]; mean ± SEM, DMSO –20.04 ± 0.85): –20.40 ± 0.89 (10) mV; V1/2 of Steady-state Inactivation (Nav1.6 channel [1]; mean ± SEM): –57.59 ± 0.56 (6) mV"
"CC(=O)N[C@@H](CCC(=O)OC(C)(C)C)C(=O)N[C@@H](Cc1ccc(OC(C)(C)C)cc1)C(=O)N[C@@H](Cc1ccc(OC(C)(C)C)cc1)C(=O)N[C@H](C(N)=O)C(C)C [Compound 17, tert-butyl (S)-4-acetamido-5-(((S)-1-(((S)-1-(((S)-1-amino-3-methyl-1-oxobutan-2-yl)amino)-3-(4-(tert-butoxy)phenyl)-1-oxopropan-2-yl)amino)-3-(4-(tert-butoxy)phenyl)-1-oxopropan-2-yl)amino)-5-oxopentanoate] (Ac-E(OtBu)Y(tBu)Y(tBu)V-NH2)",0.088,6030,–,–,–,–
"CC(C)[C@H](NC(=O)[C@H](Cc1ccc(OC(C)(C)C)cc1)NC(=O)[C@H](Cc1ccc(OC(C)(C)C)cc1)NC(=O)[C@H](CCC(=O)OC(C)(C)C)NC(=O)c1ccccc1)C(N)=O [Compound 19, tert-butyl (S)-5-(((S)-1-(((S)-1-(((S)-1-amino-3-methyl-1-oxobutan-2-yl)amino)-3-(4-(tert-butoxy)phenyl)-1-oxopropan-2-yl)amino)-3-(4-(tert-butoxy)phenyl)-1-oxopropan-2-yl)amino)-4-benzamido-5-oxopentanoate] (Bz-E(OtBu)Y(tBu)Y(tBu)V-NH2)",0.013,2060,–,–,–,"Fold increase in binding to FGF14 (FGF14; 19 relative to 17 (Ac to benzoyl)): approximately 2 fold; Tau of Fast Inactivation (Nav1.6 channel [1]; mean ± SEM): 1.12 ± 0.07 (7) ms; Long Term Inactivation, depolarization cycle 4 (INa/INa,Cycle 1) (Nav1.6 channel [1]): 0.73 ± 0.03 (8); Long Term Inactivation, depolarization cycle 3 (INa/INa,Cycle 1) (Nav1.6 channel [1]): 0.73 ± 0.02; Long Term Inactivation, depolarization cycle 2 (INa/INa,Cycle 1) (Nav1.6 channel [1]): 0.83 ± 0.02; V1/2 of Steady-state Inactivation (Nav1.6 channel [1]; mean ± SEM): –58.53 ± 1.69 (8) mV"
"CCCCCCCCCC(=O)N[C@@H](CCC(=O)OC(C)(C)C)C(=O)N[C@@H](Cc1ccc(OC(C)(C)C)cc1)C(=O)N[C@@H](Cc1ccc(OC(C)(C)C)cc1)C(=O)N[C@H](C(N)=O)C(C)C [Compound 22, tert-Butyl (S)-5-(((S)-1-(((S)-1-(((S)-1-amino-3-methyl-1-oxobutan-2-yl)amino)-3-(4-(tert-butoxy)phenyl)-1-oxopropan-2-yl)amino)-3-(4-(tert-butoxy)phenyl)-1-oxopropan-2-yl)amino)-4-decanamido-5-oxopentanoate] (Decanoyl-E(OtBu)Y(tBu)Y(tBu)V-NH2)",0.109,690,–,–,–,–
CC/C(=C(\c1ccccc1)c1ccc(OCCN(C)C)cc1)c1ccccc1 [Tamoxifen],–,–,–,–,–,Toxicity toward HEK293 cells [2]: toxic
CC(C)C[C@H](NC(=O)[C@H](Cc1ccccc1)NC(=O)OCc1ccccc1)C(=O)N1CCC[C@H]1C(=O)N[C@@H](CCCCNC(=O)OC(C)(C)C)C(N)=O [ZL0177] (Cbz-FLPK(Boc)-NH2),–,–,–,–,–,Nav1.6-mediated peak current density (Nav1.6 channel [3]): –26.65 ± 6.3 pA/pF; Voltage-dependence of Nav1.6 channel activation (Nav1.6 channel [3]; whole-cell patch-clamp): depolarizing shift in voltage-dependence of Nav1.6 channel activation
COC(=O)[C@H](CCCCNC(=O)OCC1c2ccccc2-c2ccccc21)NC(=O)[C@@H]1CCCN1C(=O)[C@H](CC(C)C)NC(=O)[C@H](Cc1ccccc1)NC(C)=O [ZL181] (Ac-FLPK(Fmoc)-OMe),–,–,–,–,–,Firing frequencies in MSNs of the NAc (MSNs of the NAc): decreased maximal and instantaneous firing frequencies
Decanoyl-[Glu(OtBu)][Tyr(OtBu)][Tyr(OtBu)]V-NH2 (SMILES CCCCCCCCCC(=O)N[C@@H](CCC(=O)OC(C)(C)C)C(=O)N[C@@H](Cc1ccc(OC(C)(C)C)cc1)C(=O)N[C@@H](Cc1ccc(OC(C)(C)C)cc1)C(=O)N[C@H](C(N)=O)C(C)C) [compound 22 (PW0207)],–,–,> 100,0.109,690,–
Ac-[Glu(OtBu)][Tyr(OtBu)][Tyr(OtBu)]V-NH2 (SMILES CC(=O)N[C@@H](CCC(=O)OC(C)(C)C)C(=O)N[C@@H](Cc1ccc(OC(C)(C)C)cc1)C(=O)N[C@@H](Cc1ccc(OC(C)(C)C)cc1)C(=O)N[C@H](C(N)=O)C(C)C) [compound 17 (PW0203)],–,–,14.3,0.088,6030,–
Bz-[Glu(OtBu)][Tyr(OtBu)][Tyr(OtBu)]V-NH2 (SMILES CC(C)[C@H](NC(=O)[C@H](Cc1ccc(OC(C)(C)C)cc1)NC(=O)[C@H](Cc1ccc(OC(C)(C)C)cc1)NC(=O)[C@H](CCC(=O)OC(C)(C)C)NC(=O)c1ccccc1)C(N)=O) [compound 19 (PW0204)],–,–,6.49,0.013,2060,Kd [5]: 6.3 µM
